In PubChem BioAssay AID192 (DTP/NCI, 2004):
Several values for one entry are separate records, joined by “and”; a condition that tells them apart may be missing. Equal entries are not always repeated. Toxic doses and inconclusive results are not listed.

Test system: BDF1 mice, B16 melanoma ip, median survival T/C
Test: NCI In Vivo Anticancer Drug Screen. Data for tumor model B16 Melanoma (intraperitoneal) in B6D2F1 (BDF1) mice
Conditions: endpoint: median survival time, higher = longer survival
Method in brief: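 Read-out: survival or tumor size, given as treated/control ratio. Controls received vehicle only; animals bore transplantable tumors.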

[1] = dose: 400.0 mg/kg/injection, schedule: Q01DX009 (ip), vehicle: saline with Tween-80
[2] = dose: 50.0 mg/kg/injection, schedule: Q01DX009 (ip), vehicle: saline with Tween-80
[3] = dose: 100.0 mg/kg/injection, schedule: Q01DX009 (ip), vehicle: saline with Tween-80
[4] = dose: 200.0 mg/kg/injection, schedule: Q01DX009 (ip), vehicle: saline with Tween-80

## O=NN(CCF)C(=O)NC1CCS(=O)(=O)CC1
dose: 3.75 mg/kg/injection, schedule: Q01DX001 (ip), vehicle: saline
  T/C: 173 % of control
dose: 7.5 mg/kg/injection, schedule: Q01DX001 (ip), vehicle: saline
  T/C: 241 % of control
dose: 15.0 mg/kg/injection, schedule: Q01DX001 (ip), vehicle: saline
  T/C: 260 % of control
dose: 30.0 mg/kg/injection, schedule: Q01DX001 (ip), vehicle: saline
  T/C: 256 % of control
dose: 60.0 mg/kg/injection, schedule: Q01DX001 (ip), vehicle: saline
  T/C: 260 % of control

## CCCCCCCC(=O)N(C)OC
dose: 6.25 mg/kg/injection, schedule: Q04DX003 (ip), vehicle: Klucel (hydroxypropylcellulose) (HPC)
  T/C: 107 % of control
dose: 12.5 mg/kg/injection, schedule: Q04DX003 (ip), vehicle: Klucel (hydroxypropylcellulose) (HPC)
  T/C: 96 % of control
dose: 25.0 mg/kg/injection, schedule: Q04DX003 (ip), vehicle: Klucel (hydroxypropylcellulose) (HPC)
  T/C: 112 % of control

## Oc1ccc2ccccc2c1N=Nc1ccc(Cl)cc1
[1]
  T/C: 90 % of control

## CCCCCCCC(=O)CCCCC
dose: 50.0 mg/kg/injection, schedule: Q01DX009 (ip), vehicle: other
  T/C: 90 % of control
dose: 100.0 mg/kg/injection, schedule: Q01DX009 (ip), vehicle: other
  T/C: 94 % of control
dose: 200.0 mg/kg/injection, schedule: Q01DX009 (ip), vehicle: other
  T/C: 100 % of control

## COc1cc2ccc(C(C)N)cc2cc1OC (centres undefined)
dose: 100.0 mg/kg/injection, schedule: Q01DX009 (ip), vehicle: saline
  T/C: 97 % of control
dose: 200.0 mg/kg/injection, schedule: Q01DX009 (ip), vehicle: saline
  T/C: 95 % of control

## Cc1nc(-c2ccccc2)nc2c1CCO2
dose: 33.0 mg/kg/injection, schedule: Q01DX009 (ip), vehicle: saline with Tween-80
  T/C: 92 % of control
[2]
  T/C: 93 % of control
dose: 75.0 mg/kg/injection, schedule: Q01DX009 (ip), vehicle: saline with Tween-80
  T/C: 89 % of control
[3]
  T/C: 122 % of control

## COc1ccc(C(=O)c2cc(OC)c(OC)c(OC)c2)cc1OC
dose: 100.0 mg/kg/injection, schedule: Q01DX009 (ip), vehicle: Klucel (hydroxypropylcellulose) (HPC)
  T/C: 110 % of control
[3]
  T/C: 111 % of control
dose: 200.0 mg/kg/injection, schedule: Q01DX009 (ip), vehicle: Klucel (hydroxypropylcellulose) (HPC)
  T/C: 105 % of control
[4]
  T/C: 104 % of control
dose: 400.0 mg/kg/injection, schedule: Q01DX009 (ip), vehicle: Klucel (hydroxypropylcellulose) (HPC)
  T/C: 115 % of control
[1]
  T/C: 102 % of control

## N=C1SCc2ccc3ccccc3c21
[2]
  T/C: 99 % of control
[3]
  T/C: 97 % of control
[4]
  T/C: 91 % of control
[1]
  T/C: 89 % of control

## CC1CC[N-]CC1.CC1CC[N-]CC1.CC1CC[N-]CC1.CC1CC[N-]CC1.CS(C)=O.CS(C)=O.[Cl-].[Cl-].[Cl-].[Cl-].[Pt+4].[Rh+3]
dose: 0.2 mg/kg/injection, schedule: Q01DX009 (ip), vehicle: water
  T/C: 100 % of control
dose: 0.4 mg/kg/injection, schedule: Q01DX009 (ip), vehicle: water
  T/C: 104 % of control
dose: 0.8 mg/kg/injection, schedule: Q01DX009 (ip), vehicle: water
  T/C: 106 % of control
dose: 1.5 mg/kg/injection, schedule: Q01DX009 (ip), vehicle: water
  T/C: 106 % of control
dose: 3.0 mg/kg/injection, schedule: Q01DX009 (ip), vehicle: water
  T/C: 106 % of control

## CCCCCCCCCCCCCC[N+](C)(C)CCCCCCCCCCCCCC
dose: 6.0 mg/kg/injection, schedule: Q01DX009 (ip), vehicle: saline
  T/C: 88 % of control

## COc1ccccc1NC(=O)Nc1ccc(Nc2ccccc2)cc1
dose: 100.0 mg/kg/injection, schedule: Q01DX009 (ip), vehicle: gum acacia
  T/C: 109 % of control
dose: 200.0 mg/kg/injection, schedule: Q01DX009 (ip), vehicle: gum acacia
  T/C: 97 % of control

## c1ccc2c(NCCCCCCCCNc3c4ccccc4nc4ccccc34)c3ccccc3nc2c1
dose: 5.0 mg/kg/injection, schedule: Q01DX009 (ip), vehicle: Klucel (hydroxypropylcellulose) (HPC)
  T/C: 151 % of control and 159 % of control
dose: 10.0 mg/kg/injection, schedule: Q01DX009 (ip), vehicle: Klucel (hydroxypropylcellulose) (HPC)
  T/C: 164 % of control
dose: 20.0 mg/kg/injection, schedule: Q01DX009 (ip), vehicle: Klucel (hydroxypropylcellulose) (HPC)
  T/C: 156 % of control
